The test system of one data set is MT2. Nature of the data set: (§1) Cytotoxicity against human MT2 cells by MTT assay. It is filed as cell-based. To be noted: mt2. In general terms: Tetrazolium assays rely on reduction of a dye to a coloured formazan, in cell work by metabolically active cells.
For data set [1], the system named is Human immunodeficiency virus 1. Nature of the data set: Antiviral activity against HIV1 3B infected in human MT2 cells assessed as inhibition of virus-induced cytopathic effect by MTT assay. It is filed as functional, organism-based. A general note: Protection from cytopathic effect is a common read-out in antiviral testing.
Data set [2] can be described thus: as §1. It is filed as cell-based. To be noted: MT2 cells.
[3] abbreviates: Human immunodeficiency virus 1, 3B, MT2, read-out: EC50.

Structures are written as SMILES.

In general, CC50 refers to the concentration at which the toxic effect on the cells reaches its halfway point. The low end stands for harm at low concentration, the high end for better tolerance by the cells. In general, EC50 refers to the midpoint of the concentration-response curve.

Regarding `COCCOc1nc(Nc2ccc(C#N)c(OCC=C(C)C)c2)nc(OC)n1`, half-maximal cytotoxicity in the data set with MT2 (CC50) was put at 8.6 µM. Besides, in data set [1] (setting [3]), the EC50 was found to be 0.097 µM.
Regarding `COCCOCCOc1nc(Nc2ccc(C#N)c(OCC=C(C)C)c2)nc(OC)n1`, in the data set with MT2, the midpoint of cytotoxicity, the CC50, lay at 13 µM. Moreover, in data set [1] (setting [3]), the EC50 amounted to 0.15 µM.
The like results for `COCCOCCOCCOc1nc(Nc2ccc(C#N)c(OCC=C(C)C)c2)nc(OC)n1` were, in that order, 4.2 µM and 0.38 µM.
For `CCc1nc(Nc2ccc(C#N)c(OCC=C(C)C)c2)nc(OCCOC)n1` the same measures were 2.1 µM and 0.057 µM.
The like results for `CCc1nc(Nc2ccc(C#N)c(OCC=C(C)C)c2)nc(OCCOCCOC)n1` were, in that order, 9.8 µM and 0.54 µM.
For `COc1nc(Nc2ccc(C#N)c(OCC=C(C)C)c2)nc(OCCN2CCN(C)CC2)n1`, the CC50 in the data set on MT2 was determined as 7 µM. The EC50 in data set [1] (setting [3]) is 0.32 µM.
`COc1nc(Nc2ccc(C#N)c(OCC=C(C)C)c2)nc(OCCOc2nc(Nc3ccc(C#N)c(OCC=C(C)C)c3)nc(OC)n2)n1` displayed a CC50 in the data set on MT2 of 42 µM. Further, the EC50 in data set [1] (setting [3]) is 0.39 µM.
In the data set on MT2, `COc1nc(Nc2ccc(C#N)c(OCC=C(C)C)c2)nc(OCCCOc2nc(Nc3ccc(C#N)c(OCC=C(C)C)c3)nc(OC)n2)n1` gave a cytotoxic concentration (CC50) of 21 µM. The EC50 in data set [1] (setting [3]) amounted to 0.17 µM.
In the case of `COc1nc(Nc2ccc(C#N)c(OCC=C(C)C)c2)nc(OCCCCOc2nc(Nc3ccc(C#N)c(OCC=C(C)C)c3)nc(OC)n2)n1`, the CC50 in the data set with MT2 was greater than 100 µM. In addition, the EC50 result in data set [1] (mt2) is on record as “Not Active”.
For `COc1nc(Nc2ccc(C#N)c(OCC=C(C)C)c2)nc(OCCOCCOc2nc(Nc3ccc(C#N)c(OCC=C(C)C)c3)nc(OC)n2)n1` the same measures were greater than 100 µM and “Not Active”.
The like results for `COc1nc(NCCNc2nc(Nc3ccc(C#N)c(OCC=C(C)C)c3)nc(OC)n2)nc(Nc2ccc(C#N)c(OCC=C(C)C)c2)n1` were, in that order, 6 µM and “Not Active”.
Molecule `COc1nc(NCCCNc2nc(Nc3ccc(C#N)c(OCC=C(C)C)c3)nc(OC)n2)nc(Nc2ccc(C#N)c(OCC=C(C)C)c2)n1` registered a CC50 with MT2 of 50 µM. The EC50 result in data set [1] (mt2) is reported as “Not Active”.
In the data set on MT2, `COc1nc(Nc2ccc(C#N)c(OCC=C(C)C)c2)nc(OCCC2CCCCO2)n1` (racemic) returned a CC50 of 4.2 µM. The EC50 in data set [1] (setting [3]) came out at 1.2 µM.
Molecule `Cc1ccnc2c1NC(=O)c1cccnc1N2C1CC1` [NEVIRAPINE] returned a CC50 in data set [2] greater than 100 µM.

Source of the values: ChEMBL document CHEMBL1949500, “Discovery of dimeric inhibitors by extension into the entrance channel of HIV-1 reverse transcriptase” (Bioorg Med Chem Lett, 2012).
